These are literature values, as cited in paper PMC10888562 (International Journal of Molecular Sciences, 2024).

What is called GI50 is the concentration at which growth is held to half of that of the control.

Common to all, as to set-up: method as in PMID 36142383, PMID 37173934, PMID 36296713
Common to all, as to settings: cited from earlier work

One data set deals with Du145 prostate.
For another data set, the system named is MIA pancreas.
Data set [1] deals with cisplatin-resistant ADDP ovarian variant.
Data set [2] has as its system non-tumour-derived MCF10A breast line.

With `N.N.[Cl][Pt][Cl]` [Cisplatin, cis-diammineplatinum(II) dichloride], the GI50 in the data set on Du145 prostate was 1.2 ± 0.1 µM; in the data set with MIA pancreas, 7.5 ± 1.3 µM; in data set [1], 28 µM; in data set [2], 5.2 ± 0.52 µM.
